Values of other authors, collected in Sander's compilation of Henry's law constants.
Where “and” joins values, the source holds several entries; their conditions need not be identical. Identical values can stand only once.

Legend:
[1] = Henry solubility constant Hcp at 295 K (mol/(m3 Pa)); settings: cited value
[2] = Henry solubility constant Hcp at 293 K (mol/(m3 Pa)); settings: cited value
[3] = Henry solubility constant Hcp at 298.15 K (mol/(m3 Pa)); settings: cited value
[4] = Henry solubility constant Hcp at 277 K (mol/(m3 Pa)); settings: reference: Roth (1942); cited value
[5] = Henry solubility constant Hcp at 310 K (mol/(m3 Pa)); settings: cited value
[6] = Henry solubility constant Hcp at 311 K (mol/(m3 Pa)); settings: reference: Orcutt and Seevers (1937b); cited value
[7] = reference: Nicholson et al. (1984)
[8] = reference: Burkholder et al. (2015)
[9] = reference: Burkholder et al. (2019)
[10] = reference: Fogg and Sangster (2003)
[11] = reference: Sander et al. (2006)
[12] = reference: Sander et al. (2011)
[13] = reference: Gaffney and Senum (1984)

For `CC(=O)CO` [1-hydroxypropanone], the “Henry solubility constant Hcp at 295 K” value ([1]; reference: Lee and Zhou (1993)) is given as 77.

In the case of `O=CCO` [2-hydroxyethanal], the “Henry solubility constant Hcp at 295 K” value ([1]; reference: Lee and Zhou (1993)) is listed as 990.

In the case of `ClC(Br)Br` [dibromochloromethane], the “Henry solubility constant Hcp at 293 K” value [2, 7] is given as 0.011, the “Henry solubility constant Hcp” value [3, 8] is given as 0.0086 and the “Henry solubility constant Hcp” value [3, 9] is given as 0.0086. For the same compound, the “Henry solubility constant Hcp” value [3, 10] was 0.0087, the “Henry solubility constant Hcp” value ([3]; reference: Goldstein (1982)) was 0.012 and the “Henry solubility constant Hcp” value [3, 7] was 0.012. The “Henry solubility constant Hcp” value [3, 11] was 0.0086 and the “Henry solubility constant Hcp” value [3, 12] was 0.0086.

In the case of `ClOCl` [dichlorine monoxide], the “Henry solubility constant Hcp at 277 K” value [4] is listed as 0.07 and the “Henry solubility constant Hcp” value [3] is listed as 0.034 and 0.076.

For `CSC` [dimethyl sulfide], the “Henry solubility constant Hcp at 293 K” value ([2]; reference: Vitenberg et al. (1975)) is given as 0.007, the “Henry solubility constant Hcp” value ([3]; reference: Brockbank (2013)) is given as 0.0054 and the “Henry solubility constant Hcp” value [3, 8] is given as 0.0053. For the same compound, the “Henry solubility constant Hcp” value [3, 9] was 0.0053, the “Henry solubility constant Hcp” value [3, 10] was 0.0052 and the “Henry solubility constant Hcp” value [3, 13] was 0.0061. The “Henry solubility constant Hcp” value [3, 11] was 0.0053 and the “Henry solubility constant Hcp” value [3, 12] was 0.0053.

In the case of `[N-]=[N+]=O` [dinitrogen monoxide], the “Henry solubility constant Hcp at 310 K” value ([5]; reference: Harris (1951)) is listed as 0.00017, the “Henry solubility constant Hcp at 311 K” value [6] is listed as 0.00017 and the “Henry solubility constant Hcp at 293 K” value ([2]; reference: Macintosh et al. (1958)) is listed as 0.0003. The “Henry solubility constant Hcp at 293 K” value ([2]; reference: Nunn (1958)) was 0.00028, the “Henry solubility constant Hcp” value [3, 8] was 0.00024 and the “Henry solubility constant Hcp” value [3, 9] was 0.00024. The “Henry solubility constant Hcp” value ([3]; reference: Gordon (1895)) was 0.00026, the “Henry solubility constant Hcp” value [3, 11] was 0.00024 and the “Henry solubility constant Hcp” value [3, 12] was 0.00024. The “Henry solubility constant Hcp” value ([3]; reference: Young (1981b)) was 0.00024.

For `CCCC(=O)OCC` [ethyl butanoate], the “Henry solubility constant Hcp at 310 K” value ([5]; reference: Nahon et al. (2000)) is given as 0.027 and the “Henry solubility constant Hcp” value ([3]; reference: Brockbank (2013)) is given as 0.025.

In the case of `CCOC(C)=O` [ethyl ethanoate], the “Henry solubility constant Hcp at 310 K” value ([5]; reference: Nahon et al. (2000)) is given as 0.039, the “Henry solubility constant Hcp” value ([3]; reference: Brockbank (2013)) is given as 0.065 and the “Henry solubility constant Hcp” value [3, 8] is given as 0.059. For the same compound, the “Henry solubility constant Hcp” value [3, 9] was 0.065 and the “Henry solubility constant Hcp” value [3, 12] was 0.059.

For `C#C` [ethyne], the “Henry solubility constant Hcp at 293 K” value ([2]; reference: Vtovec (1968)) is given as 0.00044, the “Henry solubility constant Hcp” value [3, 8] is given as 0.00041 and the “Henry solubility constant Hcp” value [3, 9] is given as 0.00041. The “Henry solubility constant Hcp” value ([3]; reference: Deno and Berkheimer (1960)) was 0.00041, the “Henry solubility constant Hcp” value ([3]; reference: Fogg et al. (2002)) was 0.00041 and the “Henry solubility constant Hcp” value [3, 11] was 0.00041. The “Henry solubility constant Hcp” value [3, 12] was 0.00041 and the “Henry solubility constant Hcp” value ([3]; reference: Schoen (1923)) was 0.00041.

In the case of `[Hg]` [mercury], the “Henry solubility constant Hcp at 293 K” value ([2]; reference: WHO (1990)) is given as 0.0014, the “Henry solubility constant Hcp” value [3, 8] is given as 0.0013 and the “Henry solubility constant Hcp” value [3, 9] is given as 0.0013. For the same compound, the “Henry solubility constant Hcp” value ([3]; reference: Clever (1987)) was 0.0012, the “Henry solubility constant Hcp” value ([3]; reference: Clever et al. (1985)) was 0.0011 and the “Henry solubility constant Hcp” value ([3]; reference: Shon et al. (2005)) was 0.0012.

In the case of `CCCC(=O)OC` [methyl butanoate], the “Henry solubility constant Hcp at 310 K” value ([5]; reference: Nahon et al. (2000)) is given as 0.036 and the “Henry solubility constant Hcp” value ([3]; reference: Brockbank (2013)) is given as 0.039.

In the case of `CCCCCCCC=O` [octanal], the “Henry solubility constant Hcp at 310 K” value ([5]; reference: Nahon et al. (2000)) is listed as 0.019 and the “Henry solubility constant Hcp” value ([3]; reference: Brockbank (2013)) is listed as 0.02.

For `O=O` [oxygen], the “Henry solubility constant Hcp at 293 K” value ([2]; reference: Nunn (1958)) is listed as 1.4e-05, the “Henry solubility constant Hcp” value ([3]; reference: Battino (1981)) is listed as 1.3e-05 and the “Henry solubility constant Hcp” value ([3]; reference: Battino et al. (1983)) is listed as 1.3e-05. The “Henry solubility constant Hcp” value [3, 8] was 1.3e-05, the “Henry solubility constant Hcp” value [3, 9] was 1.3e-05 and the “Henry solubility constant Hcp” value ([3]; reference: Himmelblau (1960)) was 1.2e-05. For the same compound, the “Henry solubility constant Hcp” value [3, 11] was 1.3e-05 and the “Henry solubility constant Hcp” value [3, 12] was 1.3e-05.

For `CC(=O)OO[N+](=O)[O-]` [peroxyacetyl nitrate], the “Henry solubility constant Hcp at 295 K” value ([1]; reference: Schwartz (1986)) is listed as 0.036, the “Henry solubility constant Hcp” value [3, 8] is listed as 0.028 and the “Henry solubility constant Hcp” value [3, 9] is listed as 0.028. The “Henry solubility constant Hcp” value [3, 13] was 0.036, the “Henry solubility constant Hcp” value ([3]; reference: Leu and Zhang (1999)) was 0.029 and the “Henry solubility constant Hcp” value ([3]; reference: Pandis and Seinfeld (1989)) was 0.029. For the same compound, the “Henry solubility constant Hcp” value [3, 11] was 0.028 and the “Henry solubility constant Hcp” value [3, 12] was 0.028.
